From US9113649B2, “Food additive comprising an amidase for detoxifying ochratoxin” (DuPont Nutrition Biosciences ApS, priority 2010, dated 2015)

Molecular target: Aspergillus niger amidase 2 sig (full length 480 aa, intracellular fraction, SEQ ID NO: 1) (Aspergillus niger, UniProt A2R2V4)
Settings: pH 7
Method: The reaction contained 60 μl mops-NaOH (0.2M, pH7.0), 20 mM CaCl2, 20 mM EDTA, amidase 2 sig (0.46 μg protein) extracted from A. niger cell harboring the amidase gene, 2 μl 25 μg/ml OTA and water to a final volume of 120 μl. The reaction was performed at 37° C. for 30 min and stopped by adding 150 μl acetonitrile containing 0.2% acetic acid. OTA and its product OT-alpha (=ODα) were analyzed on RP-HPLC on C18 column with an injection of 5 μl. Positive control (PC) contained no additives other than the buffer the amidase and OTA. Blank contained only buffer and OTA.

Chain of Aspergillus niger amidase 2 sig (full length 480 aa, intracellular fraction, SEQ ID NO: 1) (A2R2V4 other isoform, or with tags, fused parts or gaps): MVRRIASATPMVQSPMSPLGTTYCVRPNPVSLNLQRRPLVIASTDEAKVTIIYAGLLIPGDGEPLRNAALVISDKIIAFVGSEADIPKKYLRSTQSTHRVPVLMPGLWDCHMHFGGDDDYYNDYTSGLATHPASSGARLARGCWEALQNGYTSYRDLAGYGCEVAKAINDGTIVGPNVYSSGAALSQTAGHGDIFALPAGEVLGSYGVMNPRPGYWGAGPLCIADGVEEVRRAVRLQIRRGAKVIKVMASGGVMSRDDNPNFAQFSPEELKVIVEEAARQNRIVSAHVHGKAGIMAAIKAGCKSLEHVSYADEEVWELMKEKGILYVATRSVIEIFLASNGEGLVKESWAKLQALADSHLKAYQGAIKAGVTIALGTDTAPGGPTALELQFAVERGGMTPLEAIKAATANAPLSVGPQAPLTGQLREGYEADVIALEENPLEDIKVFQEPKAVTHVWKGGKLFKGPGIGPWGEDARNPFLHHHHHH

Structure (SMILES): O=C(O)CN(CCN(CC(=O)O)CC(=O)O)CC(=O)O [EDTA]
- inhibition of amidase 2 sig (OTA degradation): no inhibition
